# Legend:
# healthy subjects [1] = assay: Placebo-controlled clinical pharmacology study, blood pressure at supratherapeutic doses; type: in vivo, human; conditions: 300 mg twice daily, 12 hour steady state dosing interval
# healthy subjects [2] = assay: QTcF interval study, placebo- and positive-controlled; type: in vivo, human; conditions: 600 mg/day
# Excerpt: After baseline and placebo adjustment, the maximum mean QTcF change was 8 ms (2-sided 90% CI, 3-12 ms).
# patients = assay: Spontaneous / postmarketing reports; type: in vivo, human; conditions: post-marketing, multiple drugs but also milnacipran hydrochloride only
# Excerpt: However, because these adverse reactions were reported voluntarily from a population of uncertain size, it is not always possible to reliably estimate their frequency or establish a causal relationship to drug exposure.
# fibromyalgia = assay: Study 2, 3-month fibromyalgia efficacy study; type: in vivo, human
# Excerpt: Enrolled patients met the American College of Rheumatology (ACR) criteria for fibromyalgia (a history of widespread pain for 3 months and pain present at 11 or more of the 18 specific tender point sites). […] Study 1 was six months in duration and Study 2 was three months in duration.
# Patients were enrolled with a minimum mean baseline pain score of ≧40 mm on a 100-mm VAS ranging from 0 (“no pain”) to 100 (“worst possible pain”). The mean baseline pain score in this trial was 65.
# Human pharmacokinetics = conditions: in vivo
# Description: The pharmacokinetic parameters described herein include area under the plasma concentration-time curve (AUC0-t and AUC0-∞), maximum plasma concentration (Cmax), time of maximum plasma concentration (Tmax) and terminal elimination half-life (T1/2). The time of maximum concentration, Tmax, is determined as the time corresponding to Cmax. Area under the plasma concentration-time curve up to the time corresponding to the last measurable concentration (AUC0-t) is calculated by numerical integration using the linear trapezoidal rule as follows: […]
# plasma proteins = assay: Plasma protein binding; type: in vitro ADME
# [3] = Drug interaction studies in healthy adult subjects; type: in vivo, human
# Description: The drug interaction studies described below were conducted in healthy adult subjects.
smiles,measurement,setting,value
"CCN(CC)C(=O)C1(c2ccccc2)CC1CN.Cl (racemic) [milnacipran hydrochloride, (±)-[1R(S),2S(R)]-2-(aminomethyl)-N,N-diethyl-1-phenylcyclopropanecarboxamide hydrochloride]",mean increase in supine diastolic blood pressure,healthy subjects [1],up to 11.5 mm Hg
same,mean increase in supine systolic blood pressure,healthy subjects [1],up to 10.0 mm Hg
same,clinical significance of QTcF increase,healthy subjects [2],not considered to be clinically significant
same,maximum mean QTcF change,"healthy subjects [2]; after baseline and placebo adjustment (2-sided 90% CI, 3-12 ms)",8 ms
same,outcome of acute overdoses,patients,fatal outcomes have been reported
same,patients with at least 30% reduction in pain from baseline (VAS) and globally improved (PGIC) vs placebo,"fibromyalgia; 100 mg and 200 mg daily, 3-month time point",More patients
same,benefit of 200 mg/day vs 100 mg/day,fibromyalgia; in vivo,did not confer greater benefit
same,effect of food on absorption,Human pharmacokinetics,not affected by food
same,plasma protein binding,plasma proteins,13%
same,pharmacokinetic interaction with digoxin,"[3]; 200 mg/day and digoxin 0.2 mg/day Lanoxicaps, multiple-dose",no pharmacokinetic interaction
same,change in pharmacokinetics of carbamazepine or its epoxide metabolite,[3]; co-administration with milnacipran hydrochloride,No changes were observed
same,adverse events after switching from clomipramine,"[3]; human, in vivo",an increase in euphoria and postural hypotension
same,hemodynamic adverse effects in combination with digoxin,[3]; intravenously administered digoxin (1 mg),Postural hypotension and tachycardia have been reported
same,effect on pharmacokinetics of lithium,"[3]; multiple doses, 100 mg/day",did not affect
same,pharmacokinetic interaction with lorazepam,[3]; single dose 50 mg and lorazepam 1.5 mg,no pharmacokinetic interaction
